Test results taken from patent US8236354B1, “Use of immunomodulators for the treatment of cancer” (ZOR Pharmaceuticals, LLC, priority 2012, dated 2012).

How the values were obtained:
[1] = tested on: advanced (unresectable or metastatic) pancreatic adenocarcinoma; assay: Phase 3 double-blind, randomized, placebo-controlled 3-stage trial: survival and time to symptom progression; type: in vivo, human; settings: for Median survival time from entry into study Stage 3 to death from any cause: Stage 3 test product with or without 5-FU
Protocol: This was a double-blind, multicenter, randomized, 2-arm, parallel group, 3-stage trial. Median survival was the primary end-point calculated from Kaplan-Meier plots of survival of the Intention to Treat data set.
The blood pharmacokinetic profiles of gemcitabine and VIRULIZIN® were assessed by an independent (unblinded) pharmacokinetics assessor. Stage 1 was performed at selected sites. Immune stimulation assays were also to be performed in these patients.
The decision to discontinue patients from Stage 2 and move them into Stage 3 and to continue or discontinue study treatment was at the discretion of the investigator.
However, if the investigator believed further chemotherapy was not in the best interest of the patient (based on hematological profile, symptom progression or no evidence of clinical benefit), the patient continued to receive best supportive care, with or without continued injections of VIRULIZIN® or placebo. The first 18 patients entering Stage 3 and receiving VIRULIZIN® or placebo plus intravenous infusions of 5-FU were to have blood samples taken to assess the pre- and post-dose plasma concentrations of 5-FU.
Male or female patients, aged 18 years or older, with advanced (unresectable or metastatic) pancreatic adenocarcinoma (tumor staging definition—tumor, lymph nodes, metastasis [TNM] stages II, III or IV) who had not received previous systemic chemotherapy, who had Eastern Cooperative Oncology Group (ECOG) Score 0, 1 or 2, and life expectancy greater than or equal to 12 weeks were included in the study.
(§1) VIRULIZIN® or placebo was administered as intramuscular injections of 3 mL with dosing 3 times weekly (Monday, Wednesday, Friday) in Stages 1, 2 and 3.
(§2) Following pain stabilization screening, all randomized patients in Stages 1 and 2 received 30-minute intravenous infusions of gemcitabine at a dose of 1 g/m2 weekly for the first 7 weeks, followed by a week of rest. Subsequent cycles consisted of 28-day cycles with gemcitabine dosing on days 1, 8 and 15. Guidelines for dose reduction in case of toxicity were provided from the Official Product Prescribing Guidelines. Dosing continued until intolerance to gemcitabine developed, or there was symptom progression, or no evidence of clinical benefit. […] The patient's physician made the decision concerning 5-FU chemotherapy or best supportive care.
Efficacy was evaluated based upon survival time, defined as the time from Baseline/Treatment Day 1 to the time of death from any cause. Time to progression of symptoms, consisting of: time to increase in pain (with consideration of analgesic consumption), time to deterioration in ECOG score, and time to weight loss.

[2] = in vivo
Protocol: as §1, §2
Safety was evaluated based upon adverse events (AEs), laboratory tests, and vital signs.

[3] = Efficacy evaluable, ECOG 0 or 1, value (95% CI)
[4] = Efficacy evaluable, Overall, value (95% CI)
[5] = Intention to Treat, ECOG 0 or 1, value (95% CI)
[6] = Intention to Treat, Metastatic, value (95% CI)
[7] = Intention to Treat, Overall, value (95% CI)

SMILES: Nc1ccn([C@@H]2O[C@H](CO)[C@@H](O)C2(F)F)c(=O)n1 [Placebo plus gemcitabine, gemcitabine]
- Median survival time, study enrollment to death from any cause [1, 3]: 6.3 (5.0 to 7.2) months
- Percent 12-Month Survival [1, 3]: 20.1 (12.8 to 27.4) %
- Median survival time, study enrollment to death from any cause ([1]; Efficacy evaluable, ECOG 2, value (95% CI)): 5.5 (4.3 to 7.4) months
- Median survival time, study enrollment to death from any cause ([1]; Efficacy evaluable, Locally advanced disease, value (95% CI)): 8.1 (7.1 to 11.2) months
- Median survival time, study enrollment to death from any cause ([1]; Efficacy evaluable, Metastatic disease, value (95% CI)): 5.0 (4.3 to 6.0) months
- Percent 12-Month Survival ([1]; Efficacy evaluable, Metastatic, value (95% CI)): 10.9 (5.4 to 16.4) %
- Median survival time, study enrollment to death from any cause [1, 4]: 6.0 (5.1 to 7.0) months
- Percent 12-Month Survival [1, 4]: 16.9 (11.2 to 22.6) %
- Median survival time, study enrollment to death from any cause ([1]; Efficacy evaluable, Patients participating in study Stage 3, value (95% CI)): 7.4 (6.8 to 8.6) months
- median duration of participation in study Stages 1 and/or 2 ([1]; FIG. 5, 248 Intention to Treat patients who participated in study Stage 3): 6.31 months
- median duration of participation in study Stages 1 and/or 2 ([1]; FIG. 6, Stage 3 participants, High ECOG score of 2): 6.31 months
- median duration of participation in study Stages 1 and/or 2 ([1]; FIG. 6, Stage 3 participants, Low ECOG score of 0 or 1): 7.13 months
- Median survival time from study enrollment to death from any cause [1, 5]: 6.4 (5.0 to 7.3) months
- Percent 12-Month Survival [1, 5]: 21.1 (14.3 to 28.0) %
- Median survival time from study enrollment to death from any cause ([1]; Intention to Treat, ECOG 0 or 1, value (95% CI), listed as placebo and gemcitabine): 6.4 months
- Median survival time from study enrollment to death from any cause ([1]; Intention to Treat, ECOG 0 or 1, value (95% CI), listed as placebo plus gemcitabine): 6.4 months
- Median survival time from study enrollment to death from any cause ([1]; Intention to Treat, ECOG 2, value (95% CI)): 5.1 (4.1 to 6.8) months
- Median survival time from study enrollment to death from any cause ([1]; Intention to Treat, ECOG 2, value (95% CI), listed as placebo and gemcitabine): 5.1 months
- Median survival time from study enrollment to death from any cause ([1]; Intention to Treat, ECOG 2, value (95% CI), listed as placebo plus gemcitabine): 6.4 months
- time to progression of pain from time of randomization ([1]; Intention to Treat, ECOG score of 0 or 1): 9.0 mo
- Median survival time from study enrollment to death from any cause ([1]; Intention to Treat, Locally advanced, value (95% CI)): 8.4 (7.1 to 11.2) months
- Median survival time from study enrollment to death from any cause [1, 6]: 5.0 (4.3 to 6.0) months
- Percent 12-Month Survival [1, 6]: 13.3 (8.0 to 18.6) %
- Median survival time from study enrollment to death from any cause [1, 7]: 6.0 (5.1 to 7.0) months
- Percent 12-Month Survival [1, 7]: 17.7 (12.3 to 23.0) %
- Median survival time from study enrollment to death from any cause ([1]; Intention to Treat, Overall, value (95% CI), listed as placebo plus gemcitabine): 6.0 months
- Median survival time from study enrollment to death from any cause ([1]; Intention to Treat, Patients participating in study Stage 3, value (95% CI)): 7.5 (6.8 to 9.4) months
- Median survival time from study enrollment to death from any cause ([1]; Intention to Treat, Patients participating in study Stage 3, value (95% CI), listed as placebo plus gemcitabine): 7.5 months
- Median survival time from entry into study Stage 3 to death from any cause ([1]; Intention to Treat, ECOG 0 or 1): 3.19 months
- Median survival time from entry into study Stage 3 to death from any cause ([1]; Intention to Treat, ECOG 2): 2.79 months
- Median survival time from entry into study Stage 3 to death from any cause ([1]; Intention to Treat, Overall): 2.96 months
- Median survival time from study enrollment to death from any cause ([1]; Intention to Treat, patients participating in study Stage 3, ECOG 0 or 1): 7.13 months
- Median survival time from study enrollment to death from any cause ([1]; Intention to Treat, patients participating in study Stage 3, ECOG 2): 6.31 months
- Abdominal pain (not otherwise specified): (%) of Patients [2]: (26.2) %
- Abdominal pain (not otherwise specified): Number of Events [2]: 96
- Abdominal pain (not otherwise specified): Number of Patients [2]: 56
- Abdominal pain upper: (%) of Patients [2]: (11.7) %
- Abdominal pain upper: Number of Events [2]: 35
- Abdominal pain upper: Number of Patients [2]: 25
- Alanine aminotransferase increased: (%) of Patients [2]: (7.0) %
- Alanine aminotransferase increased: Number of Events [2]: 21
- Alanine aminotransferase increased: Number of Patients [2]: 15
- Anemia (not otherwise specified): (%) of Patients [2]: (43.9) %
- Anemia (not otherwise specified): Number of Events [2]: 206
- Anemia (not otherwise specified): Number of Patients [2]: 94
- Anorexia: (%) of Patients [2]: (23.8) %
- Anorexia: Number of Events [2]: 71
- Anorexia: Number of Patients [2]: 51
- Ascites: (%) of Patients [2]: (17.8) %
- Ascites: Number of Events [2]: 51
- Ascites: Number of Patients [2]: 38
- Aspartate aminotransferase increased: (%) of Patients [2]: (8.9) %
- Aspartate aminotransferase increased: Number of Events [2]: 27
- Aspartate aminotransferase increased: Number of Patients [2]: 19
- Back pain: (%) of Patients [2]: (9.8) %
- Back pain: Number of Events [2]: 30
- Back pain: Number of Patients [2]: 21
- Blood alkaline phosphatase increased (not otherwise specified): (%) of Patients [2]: (9.8) %
- Blood alkaline phosphatase increased (not otherwise specified): Number of Events [2]: 28
- Blood alkaline phosphatase increased (not otherwise specified): Number of Patients [2]: 21
- Constipation: (%) of Patients [2]: (18.7) %
- Constipation: Number of Events [2]: 57
- Constipation: Number of Patients [2]: 40
- Dehydration: (%) of Patients [2]: (8.9) %
- Dehydration: Number of Events [2]: 26
- Dehydration: Number of Patients [2]: 19
- Diarrhea (not otherwise specified): (%) of Patients [2]: (21.5) %
- Diarrhea (not otherwise specified): Number of Events [2]: 79
- Diarrhea (not otherwise specified): Number of Patients [2]: 46
- Disease progression (not otherwise specified): (%) of Patients [2]: (11.7) %
- Disease progression (not otherwise specified): Number of Events [2]: 25
- Disease progression (not otherwise specified): Number of Patients [2]: 25
- Dyspnea (not otherwise specified): (%) of Patients [2]: (15.4) %
- Dyspnea (not otherwise specified): Number of Events [2]: 46
- Dyspnea (not otherwise specified): Number of Patients [2]: 33
- Edema peripheral: (%) of Patients [2]: (24.3) %
- Edema peripheral: Number of Events [2]: 76
- Edema peripheral: Number of Patients [2]: 52
- Fatigue: (%) of Patients [2]: (36.0) %
- Fatigue: Number of Events [2]: 178
- Fatigue: Number of Patients [2]: 77
- Headache (not otherwise specified): (%) of Patients [2]: (6.5) %
- Headache (not otherwise specified): Number of Events [2]: 42
- Headache (not otherwise specified): Number of Patients [2]: 14
- Jaundice (not otherwise specified): (%) of Patients [2]: (11.7) %
- Jaundice (not otherwise specified): Number of Events [2]: 30
- Jaundice (not otherwise specified): Number of Patients [2]: 25
- Leukopenia (not otherwise specified): (%) of Patients [2]: (13.6) %
- Leukopenia (not otherwise specified): Number of Events [2]: 67
- Leukopenia (not otherwise specified): Number of Patients [2]: 29
- Nausea: (%) of Patients [2]: (42.1) %
- Nausea: Number of Events [2]: 269
- Nausea: Number of Patients [2]: 90
- Neutropenia: (%) of Patients [2]: (32.2) %
- Neutropenia: Number of Events [2]: 212
- Neutropenia: Number of Patients [2]: 69
- Pyrexia: (%) of Patients [2]: (30.4) %
- Pyrexia: Number of Events [2]: 184
- Pyrexia: Number of Patients [2]: 65
- Rash (not otherwise specified): (%) of Patients [2]: (9.3) %
- Rash (not otherwise specified): Number of Events [2]: 26
- Rash (not otherwise specified): Number of Patients [2]: 20
- Rigors: (%) of Patients [2]: (15.4) %
- Rigors: Number of Events [2]: 97
- Rigors: Number of Patients [2]: 33
- Thrombocytopenia: (%) of Patients [2]: (29.9) %
- Thrombocytopenia: Number of Events [2]: 196
- Thrombocytopenia: Number of Patients [2]: 64
- Vomiting (not otherwise specified): (%) of Patients [2]: (29.4) %
- Vomiting (not otherwise specified): Number of Events [2]: 141
- Vomiting (not otherwise specified): Number of Patients [2]: 63
- Weakness: (%) of Patients [2]: (23.8) %
- Weakness: Number of Events [2]: 82
- Weakness: Number of Patients [2]: 51
- Weight decreased: (%) of Patients [2]: (12.1) %
- Weight decreased: Number of Events [2]: 38
- Weight decreased: Number of Patients [2]: 26
